From patent US6716836B2, “Non-nucleoside reverse transcriptase inhibitors” (Boehringer Ingelheim (Canada) Ltd., priority 2001, dated 2004)

Assays:
[1] = biological target: T1, HIV-1 RT double mutant K103N/Y181C (Human immunodeficiency virus type 1 group M subtype B, UniProt P04585, K690N/Y768C); assay: Reverse Transcriptase (RT) assay, double mutant enzyme; assay type: biochemical
T1 construct: Heterodimeric RT was eluted using a descending gradient; made in house; host or cells: E. coli (inferred; the text describes only wild type and Y181C preparations)
Source text: (§1) Among the enzymes for which Human Immunodeficiency Virus (HIV-1) encodes is a reverse transcriptase (1), so-named because it transcribes a DNA copy from an RNA template. This activity can be quantitatively measured in a cell-free enzyme assay, which has been previously described (2), and is based upon the observation that reverse transcriptase is able to use a synthetic template poly r(C) primed with oligo d(G) to transcribe a radio-labelled, acid-precipitable DNA strand utilising ^3H-dGTP as a substrate. The assay described below utilises the wild type (WT) enzyme, which is the predominant form of the enzyme observed with patients infected with HIV-1. Utilisation of mutant RT enzymes (for example, Y181C, prepared by site-directed mutagenesis in which the tyrosine residue at codon 181 has been replaced by a cysteine residue, or the mutants K103N, V106A and Y188C) and analogous assay conditions allows compounds to be evaluated for their effectiveness at inhibiting the mutant enzymes.
(§2) The HIV-1 RT expression clone, pKRT2, was obtained from Yale University (3). An overnight culture, grown in 2×YT medium (37° C., 225 rpm) (4), supplemented with 100 μg/mL ampicillin for positive selection was used to inoculate the 2×YT medium. The culture was incubated (37° C., 225 rpm) until it reached an OD600 of 0.6-0.9. At that time, the repressor inhibitor IPTG (isopropyl P-D-thiogalactopyranoside) was added to 0.5 mM, and the mixture was incubated for an additional 2 hours.
(§3) Purification of recombinant reverse transcriptase was performed using a combination of methods previously described (5). This procedure is summarised briefly as follows: E. Coli containing RT-1 wt or RT-1 (Y181 C) were suspended in 50 mM MES, pH 6.0 containing 10% glycerol, lysed in a French press, centrifuged, and the supernates discarded. Lysate pellets were extracted with buffer A (50 mM MES, pH 6.0, 100 mM KCl, 50 mM KPi, 10% glycerol, 0.02% hexyl-β-glucoside), and re-centrifuged; nucleic acid in supernates was precipitated with 0.1% polyethylenimine. […] Bound RT was eluted with a gradient of 0 to 1.0M
(§4) (NH4)2 SO4 in buffer B. Heparin-Sepharose fractions containing RT were concentrated (Amicon YM-30 membrane), combined with equal volumes of 2.0M (NH4)2SO4 in buffer B and injected onto a 21.5×150 mm TSK Phenyl-5PW HIC HPLC column (Phenomenex). Heterodimeric RT was eluted using a descending gradient of 1.0M to 0M (NH4)2SO4 in buffer B, concentrated, and stored at 4° C.
(§5) The 2.4× concentrated stock reaction mixture was aliquoted and stored at −20° C. The mixture is stable and can be thawed for use in each assay. This enzyme assay has been adapted to a 96 well microtiter plate system, and has been previously described (6). Tris buffer (50 mM, pH 7.8), vehicle (solvent diluted to match the compound dilution), or compounds in vehicle were dispensed into 96-well microtiter plates (10 μL/well; 3 wells/compound). The HIV-1 RT enzyme was thawed, diluted in 50 mM Tris pH 7.8 containing 0.05% Chaps to give 1.5 nM enzyme and 25 μL were dispensed per well. Ten μL of 0.5M EDTA were added to the first three wells of the microtiter plate. EDTA chelates the Mg^2+ present and prevents reverse transcription. This group served as background polymerisation, which was subtracted, from all other groups. Twenty-five μl of the 2.4× reaction mixture was added to all wells and the assay was allowed to incubate at room temperature for 30 minutes. The assay was terminated by precipitating the DNA in each well with 60 μL of sodium pyrophosphate (2% w/v) in 10% trichloroacetic acid (TCA) (10% w/v). The microtiter plate was incubated for 15 minutes at 4° C. and the precipitate was harvested onto #30 glass fibre paper (Schleicher & Schuell) using a Tomtech 96-well harvester. The filters were dried, placed in plastic bags with Betaplate scintillation cocktail (Pharmacia/LKB) and counted in the Betaplate counter (Pharmacia/LKB).
(§6) The calculation for percent inhibition is as follows: [formula] […]

[2] = biological target: T2, HIV-1 RT wild type (WT) (Human immunodeficiency virus type 1 group M subtype B, UniProt P04585); assay: Reverse Transcriptase (RT) assay, wild type enzyme; assay type: biochemical
T2 construct: Heterodimeric RT was eluted using a descending gradient; made in house; host or cells: E. coli
Source text: as §1, §2, §3, §4, §5, §6

Compound | IC50 [1] | IC50 [2]
Cc1ccnc2c1NC(=O)c1cc(CCOc3cccc4c3CS(=O)(=O)N4Cc3cc[n+]([O-])cc3)cnc1N2C1CC1 [Compound 144] | 100 to 1000 nM | < 100 nM
CCN1c2ncc(CCOc3cccc4c3CCS(=O)(=O)N4Cc3ncc[nH]3)cc2C(=O)N(C)c2cccnc21 [Compound 642] | < 100 nM | < 100 nM
CCNC(=O)CN1c2cccc(OCCc3cnc4c(c3)C(=O)N(C)c3cccnc3N4CC)c2CS1(=O)=O [Compound 140] | < 100 nM | < 100 nM
CCN1c2ncc(CCOc3cccc4c3CCS(=O)(=O)N4CCCC(N)=O)cc2C(=O)N(C)c2cccnc21 [Compound 635] | < 100 nM | < 100 nM
CCN1c2ncc(CCOc3cccc4c3CCNS4(=O)=O)cc2C(=O)N(C)c2cccnc21 [Compound 712] | < 100 nM | < 100 nM
CCN1c2ncc(CCOc3cccc4c3CS(=O)(=O)N4C)cc2C(=O)N(C)c2ccc(F)nc21 [Compound 111] | < 100 nM | < 100 nM
CCN1c2ncc(CCOc3cccc4c3CS(=O)(=O)N4CC(=O)N(C)O)cc2C(=O)N(C)c2cccnc21 [Compound 134] | < 100 nM | < 100 nM
CCN1c2ncc(CCOc3cccc4c3CCS(=O)(=O)N4C(=O)N3CCN(C)CC3)cc2C(=O)N(C)c2cccnc21 [Compound 620] | < 100 nM | < 100 nM
CCN1c2ncc(CCOc3cccc4c3CS(=O)(=O)N4)cc2C(=O)N(C)c2ccc(C)nc21 [Compound 113] | 100 to 1000 nM | < 100 nM
CCN1c2ncc(CCOc3cccc4c3CS(=O)(=O)N4C)cc2C(=O)N(C)c2ccc(C)nc21 [Compound 114] | < 100 nM | < 100 nM
Cc1cc(F)nc2c1NC(=O)c1cc(CCOc3cccc4c3CS(=O)(=O)N4C)cnc1N2C1CC1 [Compound 118] | 100 to 1000 nM | < 100 nM
CCN1c2ncc(CCOc3cccc4c3CCS(=O)(=O)N4CS(C)(=O)=O)cc2C(=O)N(C)c2cccnc21 [Compound 627] | < 100 nM | < 100 nM
CCN1c2ncc(CCOc3cccc4c3CS(=O)(=O)N4CC(=O)NC3CC3)cc2C(=O)N(C)c2cccnc21 [Compound 139] | 100 to 1000 nM | < 100 nM
CCN1c2ncc(CCOc3cccc4c3CS(=O)(=O)N4CC(=O)NO)cc2C(=O)N(C)c2cccnc21 [Compound 133] | < 100 nM | < 100 nM
CCN(CC)CCN1c2cccc(OCCc3cnc4c(c3)C(=O)N(C)c3cccnc3N4CC)c2CCS1(=O)=O [Compound 613] | < 100 nM | < 100 nM
CCN1c2ncc(CCOc3cccc4c3CS(=O)(=O)N4CCOc3cc[n+]([O-])cc3)cc2C(=O)N(C)c2cccnc21 [Compound 143] | < 100 nM | < 100 nM
CCN1c2ncc(CCOc3ccc4c(c3)CS(=O)(=O)N4)cc2C(=O)N(C)c2cccnc21 [Compound 402] | > 1000 nM | < 100 nM
CCN1c2ncc(CCOc3cccc4c3CCS(=O)(=O)N4Cc3ccc[n+]([O-])c3)cc2C(=O)N(C)c2cccnc21 [Compound 632] | < 100 nM | < 100 nM
CCN1c2ncc(CCOc3cccc4c3CS(=O)(=O)N4CCOc3ccncc3)cc2C(=O)N(C)c2cccnc21 [Compound 142] | < 100 nM | < 100 nM
CCN(CC)C(=O)N1c2cccc(OCCc3cnc4c(c3)C(=O)N(C)c3cccnc3N4CC)c2CCS1(=O)=O [Compound 610] | < 100 nM | < 100 nM
CN1C(=O)c2cc(CCOc3cccc4c3CS(=O)(=O)N4)cnc2N(C2CC2)c2ncccc21 [Compound 105] | – | < 100 nM
CCN1c2ncc(CCOc3cccc4c3CCS(=O)(=O)N4C(=O)N3CCCC3)cc2C(=O)N(C)c2cccnc21 [Compound 619] | < 100 nM | < 100 nM

Compound | IC50 [1] | IC50 [2]
CCN1c2ncc(COc3cccc4c3CS(=O)(=O)N4Cc3cc[n+]([O-])cc3)cc2C(=O)N(C)c2ccc(F)nc21 [Compound 148] | – | < 100 nM
CCN1c2ncc(CCOc3cccc4c3CS(=O)(=O)N4)cc2C(=O)Nc2c(C)cc(C)nc21 [Compound 109] | 100 to 1000 nM | < 100 nM
CCN1c2ncccc2NC(=O)c2cc(CCOc3cccc4c3C=CS(=O)(=O)N4C)cnc21 [Compound 805] | 100 to 1000 nM | < 100 nM
CCN1c2ncc(COc3cccc4c3CS(=O)(=O)N4C)cc2C(=O)N(C)c2ccc(F)nc21 [Compound 107] | – | < 100 nM
CCN1c2ncc(CCOc3ccc4c(c3)C(C)(C)S(=O)(=O)N4)cc2C(=O)Nc2c(C)cc(F)nc21 [Compound 409] | 100 to 1000 nM | < 100 nM
CCOC(=O)CCCN1c2cccc(OCCc3cnc4c(c3)C(=O)N(C)c3cccnc3N4CC)c2CS1(=O)=O [Compound 135] | < 100 nM | < 100 nM
CCN1c2ncc(CCOc3cccc4c3C=CS(=O)(=O)N4)cc2C(=O)N(C)c2cccnc21 [Compound 808] | – | 100 to 1000 nM
CCN1c2ncc(CCOc3cccc4c3CCS(=O)(=O)N4CC(N)=O)cc2C(=O)N(C)c2cccnc21 [Compound 609] | < 100 nM | < 100 nM
Cc1cc(F)nc2c1NC(=O)c1cc(CCOc3cccc4c3CS(=O)(=O)N4)cnc1N2C1CC1 [Compound 106] | – | < 100 nM
Cc1cc(F)nc2c1N(C)C(=O)c1cc(CCOc3cccc4c3CS(=O)(=O)N4C)cnc1N2C1CC1 [Compound 119] | 100 to 1000 nM | < 100 nM
CCN1c2ncc(COc3ccc4c(c3)CS(=O)(=O)N4)cc2C(=O)N(C)c2ccc(F)nc21 [Compound 404] | > 1000 nM | < 100 nM
CCN1c2ncc(CCOc3cccc4c3CCS(=O)(=O)N4C(=O)N(C)OC)cc2C(=O)N(C)c2cccnc21 [Compound 611] | < 100 nM | < 100 nM
CCN1c2ncc(CCOc3ccc4c(c3)CN(C)S4(=O)=O)cc2C(=O)N(C)c2cccnc21 [Compound 303] | 100 to 1000 nM | < 100 nM
CCN1c2ncc(CCOc3cccc4c3CS(=O)(=O)N4)cc2C(=O)Nc2c(C)ccnc21 [Compound 120] | – | 100 to 1000 nM
CCN1c2ncc(CCOc3cccc4c3CS(=O)(=O)N4CC3CC3)cc2C(=O)Nc2c(C)ccnc21 [Compound 121] | 100 to 1000 nM | < 100 nM
CCOC(=O)N1c2cccc(OCCc3cnc4c(c3)C(=O)N(C)c3cccnc3N4CC)c2CS1(=O)=O [Compound 122] | < 100 nM | < 100 nM
CCN1c2ncc(CCOc3ccc4c(c3)C(C)(C)N(C)S4(=O)=O)cc2C(=O)N(C)c2cccnc21 [Compound 307] | 100 to 1000 nM | < 100 nM
CCN1c2ncc(CCOc3cccc4c3CS(=O)(=O)N4Cc3cc[n+]([O-])cc3)cc2C(=O)Nc2c(C)cc(F)nc21 [Compound 145] | < 100 nM | < 100 nM
CCN1c2ncc(CCOc3cccc4c3CS(=O)(=O)N4Cc3cc[n+]([O-])cc3)cc2C(=O)Nc2c(C)cc(Cl)nc21 [Compound 146] | < 100 nM | < 100 nM
CCN1C(=O)c2cc(CCOc3cccc4c3C=CS(=O)(=O)N4C)cnc2N(CC)c2ncccc21 [Compound 806] | < 100 nM | < 100 nM
CCN1c2ncc(COc3cccc4c3CS(=O)(=O)N4)cc2C(=O)N(C)c2ccc(F)nc21 [Compound 104] | – | > 1000 nM
CCN1c2ncc(COc3cccc4c3C(C)S(=O)(=O)N4C)cc2C(=O)N(C)c2ccc(F)nc21 (centres unmarked) [Compound 108] | – | 100 to 1000 nM
